Experimental data published in US20100137232A1 (priority 2004, published 2010).

How the values were obtained:
[1] = in vivo
Excerpt: In the specification, the terms ‘eye-acceptable’ and ‘acceptable to the eye’ (as well as similar terms) are intended to mean that no lachrymatory effect is seen and/or no irritation of, and/or damage to, the surface of the eye (cornea) and/or the surrounds of the eye (the lids, tear ducts etc.) and/or the deeper structures within the eye (lens, muscles etc.).

stromal proteins = conditions: cited from earlier work
[2] = cited from earlier work
[3] = humans, cited from earlier work

In the case of `CCO` [ethanol], the “maximum concentration which is acceptable in and to the eye” value [1] is given as 2.5 v/v % and the “toxic effect on stromal proteins” value (stromal proteins) is given as “direct toxic effect”.

In the case of `C[C@H]1O[C@@H](O[C@H]2[C@@H](O)C[C@H](O[C@H]3[C@@H](O)C[C@H](O[C@H]4CC[C@@]5(C)[C@H](CC[C@@H]6[C@@H]5C[C@@H](O)[C@]5(C)[C@@H](C7=CC(=O)OC7)CC[C@]65O)C4)O[C@@H]3C)O[C@@H]2C)C[C@H](O)[C@@H]1O` [Digoxin], the solubility in chloroform ([2]; chloroform) is given as “slightly soluble”, the “solubility in diluted (50%) alcohol” value ([2]; diluted (50%) alcohol) is given as “slightly soluble” and the solubility in ether ([2]; ether) is given as “practically insoluble”. For the same molecule, the solubility in pyridine ([2]; pyridine) was “freely soluble”, the solubility in water ([2]; water) was “practically insoluble” and the bioavailability ([3]; calculated from an oral dosage form) was “about 80%”. The half-life ([3]; oral dosage form) was 42 h.
